From US10098938B2, “Peptides and combination of peptides for use in immunotherapy against various cancers” (immatics biotechnologies GmbH, priority 2015, dated 2018)

Assays:
CD8+ T cells = assay: In vitro immunogenicity: T-cell priming with aAPCs loaded with peptide/MHC and anti-CD28, pMHC multimer readout; assay type: cell-based, human; conditions: in vitro immunogenicity of HLA class I peptides; for Wells positive [%]: pMHC multimer readout after T-cell priming
Excerpt: In order to obtain information regarding the immunogenicity of the TUMAPs of the present invention, the inventors performed investigations using an in vitro T-cell priming assay based on repeated stimulations of CD8+ T cells with artificial antigen presenting cells (aAPCs) loaded with peptide/MHC complexes and anti-CD28 antibody.
In order to perform in vitro stimulations by artificial antigen presenting cells loaded with peptide-MHC complex (pMHC) and anti-CD28 antibody, the inventors first isolated CD8+ T cells from fresh HLA-A*02 leukapheresis products via positive selection using CD8 microbeads (Miltenyi Biotec, Bergisch-Gladbach, Germany) of healthy donors obtained from the University clinics Mannheim, Germany, after informed consent.
PBMCs and isolated CD8+ lymphocytes were incubated in T-cell medium (TCM) until use consisting of RPMI-Glutamax (Invitrogen, Karlsruhe, Germany) supplemented with 10% heat inactivated human AB serum (PAN-Biotech, Aidenbach, Germany), 100 U/ml Penicillin/100 μg/ml Streptomycin (Cambrex, Cologne, Germany), 1 mM sodium pyruvate (CC Pro, Oberdorla, Germany), 20 μg/ml Gentamycin (Cambrex). 2.5 ng/ml IL7 (PromoCell, Heidelberg, Germany) and 10 U/ml IL-2 (Novartis Pharma, Nürnberg, Germany) were also added to the TCM at this step.
Generation of pMHC/anti-CD28 coated beads, T-cell stimulations and readout was performed in a highly defined in vitro system using four different pMHC molecules per stimulation condition and 8 different pMHC molecules per readout condition.
The purified co-stimulatory mouse IgG2a anti human CD28 Ab 9.3 (Jung et al., 1987) was chemically biotinylated using Sulfo-N-hydroxysuccinimidobiotin as recommended by the manufacturer (Perbio, Bonn, Germany). Beads used were 5.6 μm diameter streptavidin coated polystyrene particles (Bangs Laboratories, Illinois, USA).
pMHC used for positive and negative control stimulations were A*0201/MLA-001 (peptide […] (SEQ ID NO. 303) from modified Melan-A/MART-1) and A*0201/DDX5-001 ([…] from DDX5, SEQ ID NO. 304), respectively.
800.000 beads/200 μl were coated in 96-well plates in the presence of 4×12.5 ng different biotin-pMHC, washed and 600 ng biotin anti-CD28 were added subsequently in a volume of 200 μl. Stimulations were initiated in 96-well plates by co-incubating […] CD8+ T cells with 2×10^5 washed coated beads in 200 μl TCM supplemented with 5 ng/ml IL-12 (PromoCell) for 3 days at 37° C. Half of the medium was then exchanged by fresh TCM supplemented with 80 U/ml IL-2 and incubating was continued for 4 days at 37° C. This stimulation cycle was performed for a total of three times. For the pMHC multimer readout using 8 different pMHC molecules per condition, a two-dimensional combinatorial coding approach was used as previously described (Andersen et al., 2012) with minor modifications encompassing coupling to 5 different fluorochromes. Finally, multimeric analyses were performed by staining the cells with Live/dead near IR dye (Invitrogen, Karlsruhe, Germany), CD8-FITC antibody clone SK1 (BD, Heidelberg, Germany) and fluorescent pMHC multimers. For analysis, a BD LSRII SORP cytometer equipped with appropriate lasers and filters was used. Peptide specific cells were calculated as percentage of total CD8+ cells. Evaluation of multimeric analysis was done using the FlowJo software (Tree Star, Oregon, USA). In vitro priming of specific multimer+ CD8+ lymphocytes was detected by comparing to negative control stimulations.

HLA-A*24 = assay: MHC binding assay, UV-ligand exchange with β2m ELISA, HLA-A*24; parameters: species or system human; conditions: binding to HLA-A*24 ranged by peptide exchange yield
Excerpt: Candidate peptides for T cell based therapies according to the present invention were further tested for their MHC binding capacity (affinity). The individual peptide-MHC complexes were produced by UV-ligand exchange, where a UV-sensitive peptide is cleaved upon UV-irradiation, and exchanged with the peptide of interest as analyzed. Only peptide candidates that can effectively bind and stabilize the peptide-receptive MHC molecules prevent dissociation of the MHC complexes. To determine the yield of the exchange reaction, an ELISA was performed based on the detection of the light chain (β2m) of stabilized MHC complexes. The assay was performed as generally described in Rodenko et al. (Rodenko et al., 2006).
96 well MAXISorp plates (NUNC) were coated over night with 2 ug/ml streptavidin in PBS at room temperature, washed 4× and blocked for 1 h at 37° C. in 2% BSA containing blocking buffer. Refolded HLA-A*02:01/MLA-001 monomers served as standards, covering the range of 15-500 ng/ml. Peptide-MHC monomers of the UV-exchange reaction were diluted 100 fold in blocking buffer. Samples were incubated for 1 h at 37° C., washed four times, incubated with 2 ug/ml HRP conjugated anti-β2m for 1 h at 37° C., washed again and detected with TMB solution that is stopped with […]. Absorption was measured at 450 nm. Candidate peptides that show a high exchange yield (preferably higher than 50%, most preferred higher than 75%) are generally preferred for a generation and production of antibodies or fragments thereof, and/or T cell receptors or fragments thereof, as they show sufficient avidity to the MHC molecules and prevent dissociation of the MHC complexes.

Peptide exchange (HLA-A*24)	Substance	Wells positive [%] (CD8+ T cells)	also measured
	5 (GIVAHIQEV; listed as Homo sapiens) [compound 5]	+ (<20% = +)	
	18 (ILLDLTDNRL; listed as Homo sapiens) [compound 18]	+ (<20% = +)	
	23 (SLFSDEFKV; listed as Homo sapiens) [compound 23]	++++ (> = 70% = ++++)	
	26 (ALQEELTEL; listed as Homo sapiens) [compound 26]	+ (<20% = +)	
	29 (YLLDPSITL; listed as Homo sapiens) [compound 29]	+ (<20% = +)	
	31 (TITETTVEV; listed as Homo sapiens) [compound 31]	+ (<20% = +)	
	35 (FLLPFSTVYL; listed as Homo sapiens) [compound 35]	+ (<20% = +)	
	90 (FLQDLEQRL; listed as Homo sapiens) [compound 90]	+ (<20% = +)	
	141 (FLDKVLVAA; listed as Homo sapiens) [compound 141]	+ (<20% = +)	
	149 (ILNTHITEL; listed as Homo sapiens) [compound 149]	+ (<20% = +)	
++++ (> = 75% = ++++)	160 (VYTLDIPVL; listed as Homo sapiens) [compound 160]		
++++ (> = 75% = ++++)	161 (IYLVSIPEL; listed as Homo sapiens) [compound 161]		
++++ (> = 75% = ++++)	166 (YYVESGKLF; listed as Homo sapiens) [compound 166]		
++++ (> = 75% = ++++)	168 (KYQDILETI; listed as Homo sapiens) [compound 168]		
++++ (> = 75% = ++++)	172 (TYTTVPRVAF; listed as Homo sapiens) [compound 172]		
++++ (> = 75% = ++++)	173 (IYSWILDHF; listed as Homo sapiens) [compound 173]		
++++ (> = 75% = ++++)	175 (YYEVHKELF; listed as Homo sapiens) [compound 175]		
++++ (> = 75% = ++++)	177 (VYPWLGALL; listed as Homo sapiens) [compound 177]		
++++ (> = 75% = ++++)	179 (MYDSYWRQF; listed as Homo sapiens) [compound 179]		
++++ (> = 75% = ++++)	181 (LYLDIINLF; listed as Homo sapiens) [compound 181]		
++++ (> = 75% = ++++)	184 (VFQNFPLLF; listed as Homo sapiens) [compound 184]		
++++ (> = 75% = ++++)	186 (IFPQFLYQF; listed as Homo sapiens) [compound 186]		
++++ (> = 75% = ++++)	187 (TYLRDQHFL; listed as Homo sapiens) [compound 187]		
++++ (> = 75% = ++++)	192 (SYALLTYMI; listed as Homo sapiens) [compound 192]		
++++ (> = 75% = ++++)	193 (RFHPTPLLL; listed as Homo sapiens) [compound 193]		
+ (<20% = +)	194 (EFGSLHLEFL; listed as Homo sapiens) [compound 194]		
++++ (> = 75% = ++++)	195 (TYSVSFPMF; listed as Homo sapiens) [compound 195]		

Peptide exchange (HLA-A*24)	Substance	Wells positive [%] (CD8+ T cells)	also measured
	196 (LYIDRPLPYL; listed as Homo sapiens) [compound 196]	++++ (> = 70% = ++++)	
	197 (EYSLFPGQVVI; listed as Homo sapiens) [compound 197]	+ (<20% = +)	
++++ (> = 75% = ++++)	202 (VYWDSAGAAHF; listed as Homo sapiens) [compound 202]		
	207 (AYVVFVSTL; listed as Homo sapiens) [compound 207]	+ (<20% = +)	
++++ (> = 75% = ++++)	210 (IYTMIYRNL; listed as Homo sapiens) [compound 210]		
++++ (> = 75% = ++++)	211 (YYLEVGKTLI; listed as Homo sapiens) [compound 211]		
++++ (> = 75% = ++++)	216 (QYSSVFKSL; listed as Homo sapiens) [compound 216]		
++++ (> = 75% = ++++)	217 (FFPPTRQMGLLF; listed as Homo sapiens) [compound 217]		
	218 (YYKSTSSAF; listed as Homo sapiens) [compound 218]	+ (<20% = +)	
++++ (> = 75% = ++++)	227 (IFLDYEAGTLSF; listed as Homo sapiens) [compound 227]		
++++ (> = 75% = ++++)	228 (KYTSWYVAL; listed as Homo sapiens) [compound 228]		
	230 (KLQNIMMLL; listed as Homo sapiens) [compound 230]	++++ (> = 70% = ++++)	
++++ (> = 75% = ++++)	267 (KYMVYPQTF; listed as Homo sapiens) [compound 267]		
	268 (QYLGQIQHI; listed as Homo sapiens) [compound 268]	+ (<20% = +)	
	269 (YFIDSTNLKTHF; listed as Homo sapiens) [compound 269]	+ (<20% = +)	
++++ (> = 75% = ++++)	271 (LYHDIFSRL; listed as Homo sapiens) [compound 271]		
++++ (> = 75% = ++++)	272 (QYLQDAYSF; listed as Homo sapiens) [compound 272]		
++++ (> = 75% = ++++)	274 (AYLHSHALI; listed as Homo sapiens) [compound 274]		
++++ (> = 75% = ++++)	276 (VYGFQWRHF; listed as Homo sapiens) [compound 276]		
++++ (> = 75% = ++++)	277 (VYQGHTALL; listed as Homo sapiens) [compound 277]		
++++ (> = 75% = ++++)	278 (RYISDQLFTNF; listed as Homo sapiens) [compound 278]		
++++ (> = 75% = ++++)	280 (RYPDNLKHLYL; listed as Homo sapiens) [compound 280]		
++++ (> = 75% = ++++)	282 (KFVDSTFYL; listed as Homo sapiens) [compound 282]		
	285 (HYPPVQVLF; listed as Homo sapiens) [compound 285]	+ (<20% = +)	
++++ (> = 75% = ++++)	289 (KYPVEWAKF; listed as Homo sapiens) [compound 289]		
	291 (KLDETGNSL; listed as Homo sapiens) [compound 291]		Wells (CD8+ T cells; CD8+ T cells of healthy donors, three stimulation cycles, multimer staining): + (<20% = +)
